Source: paper doi:10.1101/839787v1 (bioRxiv, 2019)
Where a SMILES comes first, the peptide text is derived from it. Bridges are numbered along the chain shown (N, C = ends). Where no end group is shown, it is not given here.

Tests used:
[1] = test system: Raw 264 macrophages; experiment: Inflammatory response in vitro: LPS-activated macrophages; type: cell-based, murine; conditions: 100 nmol/L peptide
[2] = In vitro stability of peptides in human plasma; type: in vitro ADME; conditions: for main metabolite / main degradation product: Mass Spectrometry
[3] = test system: TNBS-induced chronic colitis; experiment: TNBS-induced chronic colitis; type: in vivo, Balb/c mice; conditions: tolerance regime, treatment during first week only; n=8
[4] = test system: DSS-induced acute colitis; experiment: DSS-induced acute ulcerative colitis; type: in vivo, C57Bl/6 mice; conditions: 5% DSS, i.p. days 1, 2, 3, day 8
[5] = test system: DSS-induced chronic colitis; experiment: DSS-induced chronic; type: in vivo, C57Bl/6 mice
[6] = test system: TNBS-induced acute colitis; experiment: TNBS-induced acute colitis, protective regime; type: in vivo, BALB/c mice; conditions: TNBS 3 mg/mouse, 0.4 mg/kg systemic, n=8
[7] = test system: TNBS-induced acute colitis; experiment: TNBS-induced acute colitis, curative regime; type: in vivo, BALB/c mice; conditions: TNBS 3 mg/mouse
[8] = Aqueous solubility; type: physicochemical; conditions: aqueous buffer solution, observation in words

CCCCCCCC(=O)N1CCC[C@H]1C(=O)N[C@H]1CSSC[C@@H](C(=O)N[C@@H](CCCCN)C(=O)O)NC(=O)[C@H](CO)NC(=O)[C@H]([C@@H](C)O)NC(=O)[C@H](Cc2ccccc2)NC(=O)[C@H]([C@@H](C)O)NC(=O)[C@H](CCCCN)NC(=O)[C@@H](Cc2c[nH]c3ccccc23)NC(=O)[C@H](Cc2c(C)cc(C)cc2C)NC(=O)[C@H](Cc2ccccc2)NC(=O)[C@H](CC(N)=O)NC(=O)[C@H](CCCCN)NC1=O [Analog 3]
effect on production of TNFα, IL-6 and NO by activated macrophages [1]: no effect

Cc1cc(C)c(C[C@@H]2NC(=O)[C@H](Cc3ccccc3)NC(=O)[C@H](CC(N)=O)NC(=O)[C@H](CCCCN)NC(=O)[C@@H](NC(=O)[C@@H]3CCCN3)CSSC[C@@H](C(=O)N[C@@H](CCCCN)C(=O)O)NC(=O)[C@H](CO)NC(=O)[C@H]([C@@H](C)O)NC(=O)[C@H](Cc3ccccc3)NC(=O)[C@H]([C@@H](C)O)NC(=O)[C@H](CCCCN)NC(=O)[C@@H](Cc3c[nH]c4ccccc34)NC2=O)c(C)c1 [Analog 2]
effect on production of TNFα, IL-6 and NO by activated macrophages [1]: no effect

C[C@@H](O)[C@@H]1NC(=O)[C@H](CCCCN)NC(=O)[C@H](Cc2c[nH]c3ccccc23)NC(=O)[C@H](Cc2ccccc2)NC(=O)[C@H](Cc2ccccc2)NC(=O)[C@H](CC(N)=O)NC(=O)[C@H](CCCCN)NC(=O)[C@@H](NC(=O)[C@@H]2CCCN2)CSSC[C@@H](C(=O)N[C@@H](CCCCN)C(=O)O)NC(=O)[C@H](CO)NC(=O)[C@H](CO)NC(=O)[C@H](Cc2ccccc2)NC1=O [Cortistatin, Cortistatin-14, reference compound] (H-PCKNFFWKTFSSCK-OH; disulfide 2-13)
main metabolite / main degradation product [2]: deletion of L-Lys14

Nc1ccc(O)c(C(=O)O)c1 [mesalazine, 5-aminosalycilic acid, reference compound]
protection from subsequent expositions to TNBS, tolerance effect [3]: fully or partially failed

CCCCCCCC(=O)N1CCC[C@H]1C(=O)N[C@H]1CSSC[C@@H](C(=O)N[C@@H](CCCCN)C(=O)O)NC(=O)[C@H](CO)NC(=O)[C@H]([C@@H](C)O)NC(=O)[C@H](Cc2ccccc2)NC(=O)[C@H]([C@@H](C)O)NC(=O)[C@H](CCCCN)NC(=O)[C@@H](Cc2c[nH]c3ccccc23)NC(=O)[C@H](Cc2ccccc2)NC(=O)[C@H](Cc2c(C)cc(C)cc2C)NC(=O)[C@H](CC(N)=O)NC(=O)[C@H](CCCCN)NC1=O [Analog 5]
main metabolite / main degradation product [2]: peptide 6 | increase of stability in serum with respect to the native neuropeptide ([2]; from half-lives in serum): ten-fold | effect on production of TNFα, IL-6 and NO by activated macrophages [1]: strikingly reduced | Colon length ([4]; mean of n=8): 8.65 cm | Colon weight ([4]; mean of n=8): 625 mg | Macroscopic score for colon (0-8) ([4]; mean of n=8): 1 | Colon weight ([4]; mouse 1): 624 mg | Macroscopic score for colon (0-8) ([4]; mouse 1): 1 | Colon length ([4]; mouse 2): 8.7 cm | Colon weight ([4]; mouse 2): 631 mg | Macroscopic score for colon (0-8) ([4]; mouse 2): 1 | Colon length ([4]; mouse 3): 9.3 cm | Colon weight ([4]; mouse 3): 581 mg | Macroscopic score for colon (0-8) ([4]; mouse 3): 0 | Colon length ([4]; mouse 4): 7.8 cm | Colon weight ([4]; mouse 4): 662 mg | Macroscopic score for colon (0-8) ([4]; mouse 4): 2 | Colon length ([4]; mouse 5): 9.2 cm | Colon weight ([4]; mouse 5): 611 mg | Macroscopic score for colon (0-8) ([4]; mouse 5): 0 | Colon length ([4]; mouse 6): 8.4 cm | Colon weight ([4]; mouse 6): 597 mg | Macroscopic score for colon (0-8) ([4]; mouse 6): 1 | Colon length ([4]; mouse 7): 8.6 cm | Colon weight ([4]; mouse 7): 624 mg | Macroscopic score for colon (0-8) ([4]; mouse 7): 1 | Colon length ([4]; mouse 8): 8.1 cm | Colon weight ([4]; mouse 8): 677 mg | Macroscopic score for colon (0-8) ([4]; mouse 8): 2 | Lengths (cm) for colons at day 25 after initiation of DSS treatment ([5]; Group 3: DSS+A5 one cycle, mean of 8 mice): 8.24 cm | Lengths (cm) for colons at day 25 after initiation of DSS treatment ([5]; Group 3: DSS+A5 one cycle, mouse 1): 8.15 cm | Lengths (cm) for colons at day 25 after initiation of DSS treatment ([5]; Group 3: DSS+A5 one cycle, mouse 2): 8.78 cm | Lengths (cm) for colons at day 25 after initiation of DSS treatment ([5]; Group 3: DSS+A5 one cycle, mouse 3): 7.86 cm | Lengths (cm) for colons at day 25 after initiation of DSS treatment ([5]; Group 3: DSS+A5 one cycle, mouse 5): 8.77 cm | Lengths (cm) for colons at day 25 after initiation of DSS treatment ([5]; Group 3: DSS+A5 one cycle, mouse 6): 7.24 cm | Lengths (cm) for colons at day 25 after initiation of DSS treatment ([5]; Group 3: DSS+A5 one cycle, mouse 7): 7.02 cm | Lengths (cm) for colons at day 25 after initiation of DSS treatment ([5]; Group 3: DSS+A5 one cycle, mouse 8): 9.14 cm | Lengths (cm) for colons at day 25 after initiation of DSS treatment ([5]; Group 4: DSS+A5 two cycles, mean of 8 mice): 9.64 cm | Lengths (cm) for colons at day 25 after initiation of DSS treatment ([5]; Group 4: DSS+A5 two cycles, mouse 3): 9.85 cm | Lengths (cm) for colons at day 25 after initiation of DSS treatment ([5]; Group 4: DSS+A5 two cycles, mouse 5): 9.34 cm | Lengths (cm) for colons at day 25 after initiation of DSS treatment ([5]; Group 4: DSS+A5 two cycles, mouse 7): 9.61 cm | Lengths (cm) for colons at day 25 after initiation of DSS treatment ([5]; Group 4: DSS+A5 two cycles, mouse 8): 9.15 cm | protection from body weight loss, bloody diarrhea and mortality [6]: significantly protected | effect on clinical signs and survival ([7]; curative regime days 3, 4, 5, i.p. or s.c. 0.4 mg/kg, n=8): significantly effective | effectiveness of oral administration versus i.p. and s.c. ([7]; curative regime, oral): less effective | protection from subsequent expositions to TNBS, tolerance effect [3]: significantly protected | aqueous solubility [8]: soluble

Cc1cc(C)c(C[C@@H]2NC(=O)[C@H](CC(N)=O)NC(=O)[C@H](CCCCN)NC(=O)[C@@H](NC(=O)[C@@H]3CCCN3)CSSC[C@@H](C(=O)N[C@@H](CCCCN)C(=O)O)NC(=O)[C@H](CO)NC(=O)[C@H]([C@@H](C)O)NC(=O)[C@H](Cc3ccccc3)NC(=O)[C@H]([C@@H](C)O)NC(=O)[C@H](CCCCN)NC(=O)[C@@H](Cc3c[nH]c4ccccc34)NC(=O)[C@H](Cc3ccccc3)NC2=O)c(C)c1 [Analog 4, [L-Msa5_D-Trp7_L-Thr11]-CST14]
effect on production of TNFα, IL-6 and NO by activated macrophages [1]: no effect

Cortistatin-29 (QEGAPPQQSARRDRMPCRNFFWKTFSSCK; disulfide 17-28 (inferred); ends not checked; UniProt O00230 77-105, looked up)
Colon length ([4]; mean of n=8): 9.08 cm | Colon weight ([4]; mean of n=8): 621 mg | Macroscopic score for colon (0-8) ([4]; mean of n=8): 0.87 | Colon length ([4]; mouse 1): 8.9 cm | Colon weight ([4]; mouse 1): 622 mg | Macroscopic score for colon (0-8) ([4]; mouse 1): 1 | Colon length ([4]; mouse 2): 9.1 cm | Colon weight ([4]; mouse 2): 634 mg | Macroscopic score for colon (0-8) ([4]; mouse 2): 1 | Colon length ([4]; mouse 3): 9.5 cm | Colon weight ([4]; mouse 3): 578 mg | Macroscopic score for colon (0-8) ([4]; mouse 3): 0 | Colon length ([4]; mouse 4): 8.4 cm | Colon weight ([4]; mouse 4): 655 mg | Macroscopic score for colon (0-8) ([4]; mouse 4): 2 | Colon length ([4]; mouse 5): 9.2 cm | Colon weight ([4]; mouse 5): 607 mg | Macroscopic score for colon (0-8) ([4]; mouse 5): 1 | Colon length ([4]; mouse 6): 8.9 cm | Colon weight ([4]; mouse 6): 632 mg | Macroscopic score for colon (0-8) ([4]; mouse 6): 1 | Colon length ([4]; mouse 7): 9.6 cm | Colon weight ([4]; mouse 7): 612 mg | Macroscopic score for colon (0-8) ([4]; mouse 7): 0 | Colon length ([4]; mouse 8): 9.1 cm | Colon weight ([4]; mouse 8): 635 mg | Macroscopic score for colon (0-8) ([4]; mouse 8): 1
